From patent publication US11773183B2, “MUC16 monoclonal antibody and uses thereof” (QUEST PHARMATECH INC., priority 2018, dated 2023)

System: T3M4 wildtype (WT) cells
Experiment: Live/Dead cell cytotoxicity assay, T3M4 wildtype cells
Type: cell-based, human
Settings: 24 h
Procedure: Materials and Methods. T3M4 wildtype (WT) and COSMC deleted (SimpleCells, SC) were treated with equal amounts of mAR 9.6 (5 μg/ml) and POCmAb (5 μg/ml) or with isotype matched (either mouse or human) control IgG antibody for 24 h. For the comparison of effect of antibodies in inducing cell death, T3M4 WT cells were treated with Sapitinib (an ErbB receptor tyrosine kinase inhibitor, 5.4 μM) and LY294002 (PI3K/Akt inhibitor, 11.3 μM) alone or in combination with mAR9.6 (5 μg/ml) and POCmAb (5 μg/ml) for 24 h. The cells were washed well with cell-culture grade PBS. 20 μl ethidium homodimer-1 (EthD-1, 2 mM) was dissolved in 10 ml PBS. To this solution, 5 μl of calcein acetoxymethyl ester (calcein-AM, 4 mM) was added. 150 μl of this combined reagent was added to the cells grown on coverslip and incubated for 30-45 minutes. The numbers of live and dead cells were detected with Zeiss LSM 710™ confocal laser scanning microscope (Carl Zeiss, Inc., Thornwood, NY, USA) at Confocal Laser Scanning Fluorescence Microscope Core Facility, UNMC. The ratio of dead cells to total cells was calculated for quantitative comparisons. Unpaired Student's t-test was performed to calculate the statistical significance between the antibodies treated T3M4 WT and T3M4 SC cells (n=4) (p<0.05 considered statistically significant). Two way analysis of variance (ANOVA) was performed to calculate the statistical significance between the inhibitors and antibody treated T3M4 cells (n=4) (p<0.05 considered statistically significant).

[1] = inhibitor (Sapitinib 5.4 μM, LY294002 11.3 μM) with human IgG isotype control
[2] = inhibitor (Sapitinib 5.4 μM, LY294002 11.3 μM) with mouse IgG isotype control

SMILES	cell death (ratio of dead cells to total cells) [1]	cell death (ratio of dead cells to total cells) [2]
CNC(=O)CN1CCC(Oc2cc3c(Nc4cccc(Cl)c4F)ncnc3cc2OC)CC1 [Sapitinib]	about 17%	about 17%
O=c1cc(N2CCOCC2)oc2c(-c3ccccc3)cccc12 [LY294002]	about 15%	about 15%
